Common to all, as to assay: NCI-60 cell line screen, 48 h
In assay [1] the test system is BT-549.
Assay [2] deals with LOX IMVI.
Assay [3] has as its system OVCAR-8.
The subject of assay [4] is NCI-H226.
The test system of assay [5] is RPMI-8226.
Assay [6] deals with HL-60.
Assay [7] concerns HT-29.
Assay [8] concerns SF-539.
Assay [9] has as its system HOP-62.
Assay [10] concerns OVCAR-3.
The subject of assay [11] is MDA-N.
Assay [12] relates to TK-10.
The subject of assay [13] is SK-MEL-28.
The test system of assay [14] is UACC-257.
Assay [15] deals with SN12C.
Assay [16] concerns MCF7.
The subject of assay [17] is SK-OV-3.
The test system of assay [18] is IGROV-1.
Assay [19] relates to RXF 393.

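Each compound was tested at five concentrations against cells in 96-well plates for 48 hours. The concentration for 50% growth inhibition is given as GI50.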 The source made the active and inactive calls. Cut-off read from the data, not from the text of the source: active = GI50 up to about 1.1 µM and inactive = higher.

Take `O=C(NCCNCCNC(=O)c1cc(-c2ccccc2)nc2ccccc12)c1cc(-c2ccccc2)nc2ccccc12`: the GI50 in [1] is 7.91 µM (inactive); in assay [2] it was 1.69 µM (inactive); in assay [3], 2.04 µM (inactive); in [4], 2.91 µM (inactive); in [5], 2.73 µM (inactive); in [6], 1.87 µM (inactive). In addition, the GI50 is 1.81 µM (inactive) in assay [7]; 2 µM (inactive) in assay [8]; 1.57 µM (inactive) in assay [9]; 2.24 µM (inactive) in assay [10]; 1.67 µM (inactive) in assay [11]; 2.4 µM (inactive) in [12]. Moreover, the GI50 in assay [13] was 1.77 µM (inactive); in assay [14], 1.98 µM (inactive); in [15] it was 2.37 µM (inactive); in assay [16], 1.78 µM (inactive); in [17], 7.46 µM (inactive); in assay [18] it was 2.52 µM (inactive). In assay [19], the GI50 was 1.67 µM (inactive).

Take `O=C1N2CCc3c([nH]c4ccccc34)C23CC2CCCCC12S3` (stereo not drawn): the GI50 in [1] was > 100 µM (inactive); in [2], > 100 µM (inactive); in assay [3], > 100 µM (inactive); in assay [4], > 100 µM (inactive); in assay [5], 48.8 µM (inactive); in assay [6] it was 95.5 µM (inactive). Besides, the GI50 in assay [7] was > 100 µM (inactive); in [8] it was > 100 µM (inactive); in [9], > 100 µM (inactive); in [10], > 100 µM (inactive); in assay [11] it was > 100 µM (inactive); in [12], 28.3 µM (inactive). Moreover, the GI50 in assay [13] was > 100 µM (inactive); in assay [14], 18.5 µM (inactive); in assay [15], > 100 µM (inactive); in assay [16] it was 39.4 µM (inactive); in assay [17], > 100 µM (inactive); in assay [18], > 100 µM (inactive). Further, the GI50 in [19] was > 100 µM (inactive).

As for `COc1nc2ncc([C@@H](O)[C@H](O)CO)nc2c(=O)[nH]1`, the GI50 is 99.1 µM (inactive) in assay [1]; > 100 µM (inactive) in assay [2]; > 100 µM (inactive) in assay [3]; > 100 µM (inactive) in assay [4]; > 100 µM (inactive) in [5]; 63.2 µM (inactive) in [6]. Besides, the GI50 in assay [7], in assay [8], in assay [9], in [10], in [11] and in [12] was > 100 µM (inactive) throughout. In addition, the GI50 in assay [13], in assay [14], in assay [15], in assay [16], in assay [17] and in assay [18] was > 100 µM (inactive) in each case. Further, the GI50 in assay [19] is > 100 µM (inactive).

Turning to `COC1/C=C/C(C)C(C(C)C(OC)C(C)CCC(=O)C(C)C(C/C=C/N(C)C=O)OC)OC(=O)C=CC2OC2(C)CC(OC)C(OC)C2=CC(=O)O[C@@H](C(C)C(OC)CC(OC)/C=C/C(C)C(O)C1)[C@H]2O` (stereo partly drawn), the GI50 was 0.0214 µM (active) in assay [1]; 0.002 µM (active) in [2]; 0.00853 µM (active) in assay [3]; 0.00615 µM (active) in assay [4]; 0.00841 µM (active) in [5]; 0.0109 µM (active) in [6]. Further, the GI50 in assay [7] is 0.00364 µM (active); in assay [8], 0.0037 µM (active); in assay [9] it was 0.00497 µM (active); in [10], 0.0108 µM (active); in assay [11] it was 0.00471 µM (active); in [12] it was 0.0119 µM (active). Besides, the GI50 is 0.00869 µM (active) in [13]; 0.0105 µM (active) in assay [14]; 0.00593 µM (active) in [15]; 0.00627 µM (active) in assay [16]; 0.0205 µM (active) in [17]; 0.00106 µM (active) in [18]. Moreover, the GI50 in [19] was 0.0139 µM (active).

For `CCOc1cc2c(NCCCN(CCO)CCO)ncnc2c(OCC)c1OCC`, the GI50 in assay [1] is > 76.4 µM (inactive); in [2], > 100 µM (inactive); in [3] it was > 100 µM (inactive); in assay [4], 21.7 µM (inactive); in assay [5], > 100 µM (inactive); in assay [6], > 89.1 µM (inactive). Further, the GI50 in assay [7] is > 65.6 µM (inactive); in assay [8], > 100 µM (inactive); in assay [9] it was > 100 µM (inactive); in assay [10], > 100 µM (inactive); in [11], > 100 µM (inactive); in assay [12] it was > 100 µM (inactive). Also, the GI50 is > 62.5 µM (inactive) in [13]; > 83.2 µM (inactive) in assay [14]; > 100 µM (inactive) in [15]; > 100 µM (inactive) in assay [16]; > 100 µM (inactive) in [17]; > 100 µM (inactive) in assay [18]. The GI50 in [19] is > 82 µM (inactive).

With `O=C(O)c1ccc(S(=O)(=O)c2ccccc2[N+](=O)[O-])cc1`, the GI50 in assay [1], in assay [2], in assay [3], in [4], in [5] and in assay [6] was > 10 µM (inactive) in each case. Further, the GI50 in assay [7], in assay [8], in assay [9], in assay [10], in assay [11] and in assay [12] was > 10 µM (inactive) in each case. The GI50 in assay [13], in assay [14], in [15], in [16], in [17] and in assay [18] was > 10 µM (inactive) each time. Also, in assay [19], the GI50 was > 10 µM (inactive).

Turning to `CC1(c2nc3ccccc3[nH]2)CCC(C(N)=O)C(C)(C)O1` (stereo not drawn), the GI50 in assay [1], in assay [2], in assay [3], in [4], in assay [5] and in assay [6] was > 100 µM (inactive) each time. Further, the GI50 in assay [7], in assay [8], in assay [9], in assay [10], in [11] and in assay [12] was > 100 µM (inactive) each time. For the same compound, the GI50 in assay [13] was > 100 µM (inactive); in assay [14], > 100 µM (inactive); in [15] it was > 100 µM (inactive); in assay [16] it was > 100 µM (inactive); in assay [17], 55.2 µM (inactive); in assay [18], > 100 µM (inactive). In addition, in [19], the GI50 is > 100 µM (inactive).

The values above are taken from ChEMBL document CHEMBL1201862, “PubChem BioAssay data set” (2004).
